# Source: ChEMBL document CHEMBL5291721, “A preclinical secondary pharmacology resource illuminates target-adverse drug reaction associations of marketed drugs” (Nat Commun, 2023)
# Tests used:
# Glucocorticoid receptor = biological target: T1, Glucocorticoid receptor (Homo sapiens, UniProt P04150); format: functional
# T1 sequence (P04150 whole entry): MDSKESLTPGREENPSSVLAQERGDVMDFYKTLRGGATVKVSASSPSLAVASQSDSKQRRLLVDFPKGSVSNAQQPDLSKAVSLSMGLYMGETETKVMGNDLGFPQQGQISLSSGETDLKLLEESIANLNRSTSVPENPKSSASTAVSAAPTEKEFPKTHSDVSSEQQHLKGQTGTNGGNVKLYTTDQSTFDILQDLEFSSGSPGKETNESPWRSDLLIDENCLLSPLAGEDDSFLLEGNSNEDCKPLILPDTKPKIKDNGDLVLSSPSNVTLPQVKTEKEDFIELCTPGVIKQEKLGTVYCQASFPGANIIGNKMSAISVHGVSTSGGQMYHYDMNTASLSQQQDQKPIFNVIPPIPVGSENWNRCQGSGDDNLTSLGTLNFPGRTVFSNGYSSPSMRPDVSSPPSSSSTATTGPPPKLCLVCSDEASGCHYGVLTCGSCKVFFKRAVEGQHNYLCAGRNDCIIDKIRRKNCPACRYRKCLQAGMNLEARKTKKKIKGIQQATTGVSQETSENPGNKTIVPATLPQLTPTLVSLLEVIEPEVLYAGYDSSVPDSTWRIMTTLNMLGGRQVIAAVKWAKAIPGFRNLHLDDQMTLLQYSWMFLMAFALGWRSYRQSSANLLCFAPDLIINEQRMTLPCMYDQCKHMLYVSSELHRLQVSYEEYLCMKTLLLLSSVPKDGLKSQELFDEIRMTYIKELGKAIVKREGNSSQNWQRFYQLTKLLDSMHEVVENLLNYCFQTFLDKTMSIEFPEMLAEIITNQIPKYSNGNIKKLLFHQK
# [1] = biological target: Epidermal growth factor receptor (Homo sapiens, UniProt P00533); format: functional
# Chain of Epidermal growth factor receptor (P00533 whole entry): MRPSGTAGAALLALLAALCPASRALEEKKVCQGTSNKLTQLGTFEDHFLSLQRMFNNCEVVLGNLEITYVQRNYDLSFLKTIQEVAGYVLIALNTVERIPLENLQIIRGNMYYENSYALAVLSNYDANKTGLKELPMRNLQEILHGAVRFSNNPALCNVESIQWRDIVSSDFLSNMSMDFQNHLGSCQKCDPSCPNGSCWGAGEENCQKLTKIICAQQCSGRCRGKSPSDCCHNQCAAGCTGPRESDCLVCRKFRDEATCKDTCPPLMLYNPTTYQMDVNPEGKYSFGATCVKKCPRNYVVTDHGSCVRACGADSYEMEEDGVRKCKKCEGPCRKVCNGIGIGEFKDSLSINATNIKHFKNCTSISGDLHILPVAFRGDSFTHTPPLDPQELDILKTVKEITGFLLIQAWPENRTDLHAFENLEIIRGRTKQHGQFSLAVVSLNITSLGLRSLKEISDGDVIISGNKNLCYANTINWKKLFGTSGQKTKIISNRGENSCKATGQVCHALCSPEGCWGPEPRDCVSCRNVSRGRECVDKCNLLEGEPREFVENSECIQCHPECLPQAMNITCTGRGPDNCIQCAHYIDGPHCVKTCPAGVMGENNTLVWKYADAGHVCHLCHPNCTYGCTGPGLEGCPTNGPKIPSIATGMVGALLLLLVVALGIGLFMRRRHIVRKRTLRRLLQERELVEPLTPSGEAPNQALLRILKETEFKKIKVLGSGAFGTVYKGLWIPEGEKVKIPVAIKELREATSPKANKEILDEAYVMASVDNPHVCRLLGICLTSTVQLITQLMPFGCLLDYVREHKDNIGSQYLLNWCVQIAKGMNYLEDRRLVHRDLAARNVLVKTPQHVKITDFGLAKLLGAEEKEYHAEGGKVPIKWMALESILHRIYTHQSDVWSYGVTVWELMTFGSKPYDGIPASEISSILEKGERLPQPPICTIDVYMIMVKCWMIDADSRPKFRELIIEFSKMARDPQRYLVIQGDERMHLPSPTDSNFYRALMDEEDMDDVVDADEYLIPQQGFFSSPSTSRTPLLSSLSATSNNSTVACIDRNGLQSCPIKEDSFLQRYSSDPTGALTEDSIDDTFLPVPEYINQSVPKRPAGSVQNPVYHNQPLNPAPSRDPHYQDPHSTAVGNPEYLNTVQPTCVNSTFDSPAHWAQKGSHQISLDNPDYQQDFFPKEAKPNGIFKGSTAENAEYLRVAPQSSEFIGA
# [2] = biological target: Gamma-aminobutyric acid receptor subunit alpha-1/alpha-2/beta-2/gamma-2 (Homo sapiens, UniProt P14867+P18507+P47869+P47870); format: functional, cell-based
# Chain of Gamma-aminobutyric acid receptor subunit alpha-1/alpha-2/beta-2/gamma-2 (P14867 whole entry): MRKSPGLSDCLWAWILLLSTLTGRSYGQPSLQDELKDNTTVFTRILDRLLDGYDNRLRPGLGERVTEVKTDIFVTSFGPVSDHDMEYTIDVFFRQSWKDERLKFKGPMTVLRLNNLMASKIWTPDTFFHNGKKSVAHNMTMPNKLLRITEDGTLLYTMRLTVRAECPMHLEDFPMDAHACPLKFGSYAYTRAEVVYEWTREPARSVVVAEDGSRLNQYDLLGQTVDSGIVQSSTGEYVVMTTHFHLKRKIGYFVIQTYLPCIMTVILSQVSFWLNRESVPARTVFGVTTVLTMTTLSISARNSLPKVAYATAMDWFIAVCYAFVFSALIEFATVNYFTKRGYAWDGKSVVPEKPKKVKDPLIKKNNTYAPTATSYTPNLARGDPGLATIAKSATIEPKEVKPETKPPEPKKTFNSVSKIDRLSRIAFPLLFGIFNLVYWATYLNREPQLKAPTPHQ
# Chain of Gamma-aminobutyric acid receptor subunit alpha-1/alpha-2/beta-2/gamma-2 (P47870 whole entry): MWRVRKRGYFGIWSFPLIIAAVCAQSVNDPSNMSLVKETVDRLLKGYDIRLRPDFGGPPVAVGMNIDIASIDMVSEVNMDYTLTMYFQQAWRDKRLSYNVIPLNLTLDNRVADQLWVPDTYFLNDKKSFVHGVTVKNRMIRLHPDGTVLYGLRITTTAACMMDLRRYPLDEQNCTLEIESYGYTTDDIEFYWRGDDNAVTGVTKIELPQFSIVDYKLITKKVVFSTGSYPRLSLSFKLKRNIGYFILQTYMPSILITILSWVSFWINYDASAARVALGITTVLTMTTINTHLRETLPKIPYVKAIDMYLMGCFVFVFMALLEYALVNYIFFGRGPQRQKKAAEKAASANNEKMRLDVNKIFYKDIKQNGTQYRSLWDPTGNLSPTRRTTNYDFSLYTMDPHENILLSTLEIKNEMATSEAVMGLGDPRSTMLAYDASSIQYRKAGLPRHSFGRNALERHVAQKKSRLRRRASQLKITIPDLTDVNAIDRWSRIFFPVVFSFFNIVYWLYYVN
# Chain of Gamma-aminobutyric acid receptor subunit alpha-1/alpha-2/beta-2/gamma-2 (P18507 whole entry): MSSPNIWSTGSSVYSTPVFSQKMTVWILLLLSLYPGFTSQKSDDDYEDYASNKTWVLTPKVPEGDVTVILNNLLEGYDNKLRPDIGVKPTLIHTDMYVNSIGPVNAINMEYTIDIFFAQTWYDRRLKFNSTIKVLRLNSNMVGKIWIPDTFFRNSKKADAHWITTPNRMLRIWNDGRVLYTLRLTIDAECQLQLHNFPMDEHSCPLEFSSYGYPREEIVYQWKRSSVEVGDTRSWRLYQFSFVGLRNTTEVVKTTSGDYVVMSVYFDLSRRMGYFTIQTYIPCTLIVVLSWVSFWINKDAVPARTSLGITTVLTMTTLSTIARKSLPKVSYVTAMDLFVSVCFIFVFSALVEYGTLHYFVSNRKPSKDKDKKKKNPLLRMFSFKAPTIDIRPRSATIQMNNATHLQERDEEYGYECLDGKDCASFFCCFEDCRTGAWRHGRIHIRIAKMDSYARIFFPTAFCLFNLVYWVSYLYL
# Chain of Gamma-aminobutyric acid receptor subunit alpha-1/alpha-2/beta-2/gamma-2 (P47869 whole entry): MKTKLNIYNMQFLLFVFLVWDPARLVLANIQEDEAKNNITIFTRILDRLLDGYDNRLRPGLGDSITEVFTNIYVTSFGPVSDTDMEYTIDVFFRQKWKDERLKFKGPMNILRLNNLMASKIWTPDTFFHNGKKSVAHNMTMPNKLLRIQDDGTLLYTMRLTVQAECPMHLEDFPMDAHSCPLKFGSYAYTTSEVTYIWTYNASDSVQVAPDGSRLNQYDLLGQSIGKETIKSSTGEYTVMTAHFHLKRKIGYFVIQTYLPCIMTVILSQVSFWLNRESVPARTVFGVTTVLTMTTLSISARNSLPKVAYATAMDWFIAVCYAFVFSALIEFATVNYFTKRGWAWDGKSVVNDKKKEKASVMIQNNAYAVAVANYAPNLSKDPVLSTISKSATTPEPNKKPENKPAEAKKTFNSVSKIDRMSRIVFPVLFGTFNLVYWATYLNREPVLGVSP
# Glucagon receptor = Glucagon receptor (Homo sapiens, UniProt P47871)
# Chain of Glucagon receptor (P47871 whole entry): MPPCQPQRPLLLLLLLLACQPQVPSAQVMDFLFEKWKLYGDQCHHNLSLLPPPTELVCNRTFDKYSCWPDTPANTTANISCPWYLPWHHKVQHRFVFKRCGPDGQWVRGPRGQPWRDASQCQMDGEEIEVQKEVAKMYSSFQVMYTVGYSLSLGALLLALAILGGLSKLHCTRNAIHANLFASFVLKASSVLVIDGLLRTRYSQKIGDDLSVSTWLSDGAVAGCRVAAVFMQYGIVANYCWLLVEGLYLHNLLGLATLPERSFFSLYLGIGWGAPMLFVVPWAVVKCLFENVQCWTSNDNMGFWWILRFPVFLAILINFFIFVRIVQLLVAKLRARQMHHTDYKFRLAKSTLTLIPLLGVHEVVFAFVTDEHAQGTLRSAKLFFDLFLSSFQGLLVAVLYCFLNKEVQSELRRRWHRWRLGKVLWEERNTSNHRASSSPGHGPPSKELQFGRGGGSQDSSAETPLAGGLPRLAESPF
# [3] = biological target: 5-hydroxytryptamine receptor 2B (Homo sapiens, UniProt P41595)
# Chain of 5-hydroxytryptamine receptor 2B (P41595 whole entry): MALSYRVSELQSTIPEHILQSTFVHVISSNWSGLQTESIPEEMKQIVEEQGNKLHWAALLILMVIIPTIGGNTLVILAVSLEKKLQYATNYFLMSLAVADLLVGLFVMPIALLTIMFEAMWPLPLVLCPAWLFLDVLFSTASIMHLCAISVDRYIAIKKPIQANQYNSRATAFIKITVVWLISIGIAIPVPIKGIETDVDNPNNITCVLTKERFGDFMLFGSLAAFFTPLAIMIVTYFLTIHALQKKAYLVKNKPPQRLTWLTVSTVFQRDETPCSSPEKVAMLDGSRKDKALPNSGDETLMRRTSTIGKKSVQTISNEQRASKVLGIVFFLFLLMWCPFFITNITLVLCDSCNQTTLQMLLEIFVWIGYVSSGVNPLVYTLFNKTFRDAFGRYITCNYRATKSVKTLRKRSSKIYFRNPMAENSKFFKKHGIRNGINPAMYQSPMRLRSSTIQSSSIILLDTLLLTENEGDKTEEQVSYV
# [4] = biological target: T2, Neuropeptide Y receptor type 2 (Homo sapiens, UniProt P49146)
# T2 sequence (P49146 whole entry): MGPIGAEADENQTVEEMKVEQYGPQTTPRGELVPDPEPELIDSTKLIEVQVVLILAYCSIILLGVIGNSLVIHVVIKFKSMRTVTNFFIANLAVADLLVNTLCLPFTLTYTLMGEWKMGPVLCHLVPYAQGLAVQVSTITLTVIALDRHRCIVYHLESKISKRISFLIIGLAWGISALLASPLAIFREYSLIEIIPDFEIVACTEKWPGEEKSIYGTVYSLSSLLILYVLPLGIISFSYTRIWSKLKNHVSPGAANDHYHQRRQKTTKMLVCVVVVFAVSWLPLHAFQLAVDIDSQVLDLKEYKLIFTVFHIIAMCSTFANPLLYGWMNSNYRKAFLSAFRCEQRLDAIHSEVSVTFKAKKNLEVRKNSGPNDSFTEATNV
# Progesterone receptor = biological target: T3, Progesterone receptor (Homo sapiens, UniProt P06401)
# T3 sequence (P06401 whole entry): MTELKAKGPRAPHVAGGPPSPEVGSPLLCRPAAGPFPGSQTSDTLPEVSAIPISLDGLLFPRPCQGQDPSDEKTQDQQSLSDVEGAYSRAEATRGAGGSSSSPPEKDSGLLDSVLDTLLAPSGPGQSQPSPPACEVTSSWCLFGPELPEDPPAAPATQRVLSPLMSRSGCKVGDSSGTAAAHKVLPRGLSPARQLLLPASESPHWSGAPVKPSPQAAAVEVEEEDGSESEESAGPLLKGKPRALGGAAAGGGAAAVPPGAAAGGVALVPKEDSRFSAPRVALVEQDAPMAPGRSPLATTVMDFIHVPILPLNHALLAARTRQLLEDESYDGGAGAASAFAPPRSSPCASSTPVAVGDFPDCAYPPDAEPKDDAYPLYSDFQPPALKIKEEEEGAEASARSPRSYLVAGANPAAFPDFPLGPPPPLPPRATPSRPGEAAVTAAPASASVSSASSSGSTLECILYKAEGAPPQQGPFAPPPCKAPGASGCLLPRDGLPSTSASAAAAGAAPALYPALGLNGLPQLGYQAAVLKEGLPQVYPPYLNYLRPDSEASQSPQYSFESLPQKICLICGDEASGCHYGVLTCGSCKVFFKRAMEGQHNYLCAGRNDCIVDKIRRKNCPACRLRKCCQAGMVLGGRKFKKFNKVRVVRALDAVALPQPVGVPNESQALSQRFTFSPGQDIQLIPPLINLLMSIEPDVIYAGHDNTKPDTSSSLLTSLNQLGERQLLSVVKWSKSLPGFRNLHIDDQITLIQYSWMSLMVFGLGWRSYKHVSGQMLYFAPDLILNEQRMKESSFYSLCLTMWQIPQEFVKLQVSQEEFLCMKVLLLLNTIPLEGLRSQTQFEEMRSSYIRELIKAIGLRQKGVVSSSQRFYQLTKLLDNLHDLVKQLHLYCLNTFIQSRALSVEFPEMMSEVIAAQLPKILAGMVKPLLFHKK
# Substance-P receptor = Substance-P receptor (Homo sapiens, UniProt P25103)
# Chain of Substance-P receptor (P25103 whole entry): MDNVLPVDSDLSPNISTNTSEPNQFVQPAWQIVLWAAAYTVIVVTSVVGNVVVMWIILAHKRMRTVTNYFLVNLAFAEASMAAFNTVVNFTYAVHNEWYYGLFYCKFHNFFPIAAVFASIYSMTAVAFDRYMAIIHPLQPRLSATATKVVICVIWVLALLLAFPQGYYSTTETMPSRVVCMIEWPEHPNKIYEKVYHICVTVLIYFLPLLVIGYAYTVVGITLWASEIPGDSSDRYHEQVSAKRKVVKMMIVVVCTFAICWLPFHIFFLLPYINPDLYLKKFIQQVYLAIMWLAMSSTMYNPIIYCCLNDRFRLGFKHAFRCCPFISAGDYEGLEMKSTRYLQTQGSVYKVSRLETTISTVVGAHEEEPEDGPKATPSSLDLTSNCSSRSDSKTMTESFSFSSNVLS
# [5] = biological target: T4, Alpha-1A adrenergic receptor (Homo sapiens, UniProt P35348)
# T4 sequence (P35348 whole entry): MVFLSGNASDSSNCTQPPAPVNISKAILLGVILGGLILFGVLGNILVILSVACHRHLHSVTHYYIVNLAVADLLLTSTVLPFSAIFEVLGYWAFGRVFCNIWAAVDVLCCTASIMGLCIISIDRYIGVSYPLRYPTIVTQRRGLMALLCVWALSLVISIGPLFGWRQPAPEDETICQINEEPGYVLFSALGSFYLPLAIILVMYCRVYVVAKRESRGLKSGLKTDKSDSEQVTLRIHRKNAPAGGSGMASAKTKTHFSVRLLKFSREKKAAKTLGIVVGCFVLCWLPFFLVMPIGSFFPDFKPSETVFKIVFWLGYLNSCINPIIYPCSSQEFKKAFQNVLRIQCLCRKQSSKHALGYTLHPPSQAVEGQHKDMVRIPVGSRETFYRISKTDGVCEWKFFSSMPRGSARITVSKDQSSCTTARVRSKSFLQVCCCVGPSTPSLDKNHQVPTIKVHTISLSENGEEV
# Note: assay procedure not described here.
Compound,AC50 (Glucocorticoid receptor) [µM],AC50 [1] [µM],AC50 [2] [µM],AC50 (Glucagon receptor) [µM],AC50 [3] [nM],AC50 [4] [µM],AC50 (Progesterone receptor) [µM],AC50 (Substance-P receptor) [µM],AC50 [5] [µM]
O=C1Nc2ccc(Cl)cc2[C@@](C#CC2CC2)(C(F)(F)F)O1 [EFAVIRENZ],> 30,–,–,–,–,–,–,–,–
C[C@H]1CNCCc2ccc(Cl)cc21 [LORCASERIN],> 30,> 30,> 30,–,–,–,–,–,–
CCCN1C[C@H](CSC)C[C@@H]2c3cccc4[nH]cc(c34)C[C@H]21 [PERGOLIDE],> 30,> 30,> 30,> 30,20.5,> 30,> 30,–,–
COCCCN1CCC(NC(=O)c2cc(Cl)c(N)c3c2OCC3)CC1 [PRUCALOPRIDE],> 30,–,> 30,–,–,–,–,–,–
Cc1c(C(=O)NN2CCCCC2)nn(-c2ccc(Cl)cc2Cl)c1-c1ccc(Cl)cc1 [RIMONABANT],> 30,> 30,> 30,> 30,> 10000,> 30,> 30,> 10,13.7
Cn1nnc2c(C(N)=O)ncn2c1=O [TEMOZOLOMIDE],–,> 30,> 30,> 30,> 10000,> 30,> 30,> 10,> 10
c1cnc(N2CCN(Cc3ccc4c(c3)OCO4)CC2)nc1 [PIRIBEDIL],> 30,> 30,> 30,–,–,–,–,–,–
C[C@@H](O)[C@H]1C(=O)N2C(C(=O)O)=C(S[C@@H]3CN[C@H](C(=O)N(C)C)C3)[C@H](C)[C@H]12 [MEROPENEM],> 300,> 300,> 300,–,–,–,–,–,–
CNC(=O)c1ccccc1Sc1ccc2c(/C=C/c3ccccn3)n[nH]c2c1 [AXITINIB],> 10,–,> 30,–,–,–,> 30,–,–
CN(C)CCC=C1c2ccccc2C(C)(C)c2ccccc21,> 30,> 30,> 30,–,–,–,–,–,–
COc1ccc(CC(C)(C)NC[C@H](O)c2cc(O)cc3c2OCC(=O)N3)cc1 [OLODATEROL],> 30,> 30,> 30,–,–,–,–,–,–
c1ccc([C@H]2CN3CCSC3=N2)cc1 [LEVAMISOLE],> 30,> 30,> 30,–,–,–,> 30,–,–
N[C@@H]1[C@H]2CN(c3nc4c(cc3F)c(=O)c(C(=O)O)cn4-c3ccc(F)cc3F)C[C@@H]12 [TROVAFLOXACIN],> 30,–,> 30,–,–,–,–,–,–
CNC1Cc2ccccc2N(C)c2ccccc21 (stereo unspecified) [METAPRAMINE],> 30,> 30,> 30,–,–,–,–,–,–
CC(C)C[C@H]1C(=O)N2CCC[C@H]2[C@]2(O)O[C@](NC(=O)[C@@H]3C=C4c5cccc6[nH]c(Br)c(c56)C[C@H]4N(C)C3)(C(C)C)C(=O)N12 [BROMOCRIPTINE],> 30,> 30,> 30,> 30,412,> 30,> 30,–,–
O=C(OCC(O)CO)c1ccccc1Nc1ccnc2cc(Cl)ccc12 (stereo unspecified) [GLAFENINE],–,> 30,> 30,–,–,–,–,–,–
CCC1=C(C)CN(C(=O)NCCc2ccc(S(=O)(=O)NC(=O)N[C@H]3CC[C@H](C)CC3)cc2)C1=O [GLIMEPIRIDE],> 30,–,–,–,–,–,–,–,–
C1CCC(C(CC2CCCCN2)C2CCCCC2)CC1 (stereo unspecified) [PERHEXILINE],> 30,> 30,> 30,–,–,–,–,–,–
NCC(CC(=O)O)c1ccc(Cl)cc1 (stereo unspecified) [BACLOFEN],> 30,> 30,> 30,> 30,> 10000,> 30,> 30,> 10,> 10
